Earlier results on one sequence are cited in PMC4738315, “How to unveil self-quenched fluorophores and subsequently map the subcellular distribution of exogenous peptides” (Scientific Reports, 2016).

This data set deals with anionic phospholipids (DOPC/DOPG or POPC/POPG). Particulars: POPC/POPG 75:25; ref 9 (Gonçalves et al., 2005); read-out: Affinity for PLs, Kd. The text has this:
page 25: Supplementary Table 1: Sequences of the three studied CPPs and their respective affinities for glycosaminoglycans or anionic phospholipids. Peptide Sequence Affinity for HS, Kd, µM[a] Affinity for PLs, Kd, µM Penetratin (Pen)3 RQIKIWFQNRRMKWKK nd[b] 63 (DOPC/DOPG 90:10)4 Tat peptide (Tat)5 YGRKKRRQRRR 1.676 83 (POPC/POPG 75:25)7 Arg98 RRRRRRRRR 0.329 12 (POPC/POPG 75:25)9 [a] HS: heparan sulfate. [b] nd: not determined. 25

As to “RRRRRRRRR [Arg9, nona-arginine, nona-arginine cell-penetrating peptide]”, the Kd is 12 µM.

As a reminder, the Kd is the free concentration of one partner at which half of the binding sites on the other are occupied at equilibrium, for simple one-to-one binding.
